We go through 8 compounds from patent US9770026B2, “Substituted pyrimidine compound and uses thereof” (Shenyang Sinochem Agrochemicals R&D Co., Ltd., priority 2012, dated 2017).

The test system of assay [1] is cucumber gray mold. Put plainly: fungicidal activity in vitro (inhibition rate) against cucumber gray mold. It counts as cell-based. The conditions noted are these: 25 ppm, in vitro; read-out: inhibition rate against cucumber gray mold.
Assay [2] has as its system Diamond back moth. In words: insecticidal activity against diamond back moth, airbrush spray. Conditions: 72 h; for pest or weed control at 600 µg/mL: 600 mg/L. It counts as in vivo. Summed up: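 Airbrush leaf-disc spray test: both faces of 2 cm cabbage discs received 0.5 ml of test solution at 0.7 kg/cm^2. Solutions were made in acetone:methanol (1:1) and brought to concentration with 0.1% Tween 80 in water. Ten second-instar larvae per disc, triplicates, were held at 25° C and 60˜70% R.H., with mortality recorded at 72 hrs.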

The subject of assay [3] is armyworm. In words: bioactivity test against armyworm, airbrush spray. It counts as in vivo. The conditions noted are these: 72 h; for pest or weed control at 600 µg/mL: 600 mg/L, read-out: Insecticidal activity against armyworm (%).
The test system of assay [4] is Green peach aphids (Myzus Persicae Sulzer). Put plainly: bioactivity test against green peach aphid, airbrush foliar spray. It counts as in vivo. The conditions noted are these: Myzus persicae, foliar, 48 h; for pest or weed control at 10 µg/mL: 10 mg/L; for pest or weed control at 10 µg/mL / pest or weed control at 100 µg/mL / pest or weed control at 600 µg/mL: contrastive test, read-out: Insecticidal activity against peach aphid (%); for pest or weed control at 100 µg/mL: 100 mg/L; for pest or weed control at 600 µg/mL: 600 mg/L. The essentials: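 Aphids (15-30 per cabbage leaf disc) on moist filter paper were airbrush-sprayed at 10 psi, 0.5 mL, with compound from acetone:methanol (1:1) diluted in water with 0.1% tween 80. Held at 25±1 C, 60±5% RH; survivors counted after 48 hrs to give death rates.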

In assay [5] the test system is carmine spider mite. In words: bioactivity test against carmine spider mite, airbrush spray. The conditions noted are these: Tetranychus cinnabarinus, 72 h; for pest or weed control at 600 µg/mL: 600 mg/L. It is filed as in vivo. The essentials: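 Broadbean seedlings infested with adult mites were sprayed with compound (acetone/methanol stock diluted in 0.1% Tween 80 water) by airbrush at 0.7 kg/cm^2, 0.5 ml. Three replicates were run. Mortality was scored after 72 hrs.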

In assay [6] the test system is corn rust. Put plainly: protectant activity in vivo against corn rust. Conditions: Zea mays, 168 h; for pest or weed control at 400 µg/mL: read-out: control effect against corn rust (%), 400 mg/L.
In assay [7] the test system is wheat powdery mildew. In words: protectant activity in vivo against wheat powdery mildew. The conditions noted are these: Triticum aestivum, 168 h; for pest or weed control at 400 µg/mL: read-out: control effect against wheat powdery mildew (%), 400 mg/L; for pest or weed control at 6.25 µg/mL: read-out: control effect against wheat powdery mildew (%), 6.25 mg/L; for pest or weed control at 25 µg/mL: read-out: control effect against wheat powdery mildew (%), 25 mg/L; for pest or weed control at 100 µg/mL: read-out: control effect against wheat powdery mildew (%), 100 mg/L.

Assay [8] relates to cucumber downy mildew. In words: protectant activity in vivo against cucumber downy mildew. The conditions noted are these: Cucumis sativus, 168 h; for pest or weed control at 400 µg/mL: read-out: control effect against cucumber downy mildew (%), 400 mg/L.
Setting [9] is: contrastive test, read-out: Insecticidal activity against carmine spider mite (% ).

As for `COC(=O)c1ccc(Oc2ccc(CCNc3cc(Cl)nc(C)n3)cc2)nc1` [CK79, reference compound], the inhibition at 25 ppm in assay [1] turned out to be 0%. The pest or weed control at 600 µg/mL in assay [2] amounted to 0%; in assay [3] it was 0%; in assay [4], 100%; in assay [5] (setting [9]), 27%. In assay [4], the pest or weed control at 10 µg/mL turned out to be 0%. For the same compound, the pest or weed control at 100 µg/mL in assay [4] came to 16%. The pest or weed control at 400 µg/mL in assay [6] (protectant activity) was determined as 0%; in assay [7] (protectant activity), 0%; in assay [8] (protectant activity), 85%.
Regarding `Cc1ncnc(NCc2ccc(Oc3ccc(C(F)(F)F)cc3)cc2)c1Cl` [CK53, reference compound], the inhibition at 25 ppm in assay [1] was determined as 0%. In addition, the pest or weed control at 600 µg/mL worked out at 0% in assay [2], 0% in assay [3], 84% in assay [4] and 100% in assay [5] (setting [9]). The pest or weed control at 10 µg/mL was 34% in assay [4] and 12% in assay [5] (10 mg/L, contrastive test, read-out: Insecticidal activity against carmine spider mite (% )). In addition, the pest or weed control at 100 µg/mL in assay [4] is 66%; in assay [5] (100 mg/L, contrastive test, read-out: Insecticidal activity against carmine spider mite (% )) it was 100%; in assay [7] (protectant activity), 80%; in assay [8] (read-out: control effect against cucumber downy mildew (%), 100 mg/L, protectant activity), 90%. Also, the pest or weed control at 400 µg/mL is 0% in assay [6] (protectant activity), 100% in assay [7] (protectant activity) and 100% in assay [8] (protectant activity). In assay [7] (protectant activity), the pest or weed control at 6.25 µg/mL amounted to 0%. For the same compound, the pest or weed control at 25 µg/mL was found to be 0% in assay [7] (protectant activity) and 60% in assay [8] (read-out: control effect against cucumber downy mildew (%), 25 mg/L, protectant activity). Also, the pest or weed control at 50 µg/mL in assay [8] (read-out: control effect against cucumber downy mildew (%), 50 mg/L, protectant activity) amounted to 85%.
For `CCOC(=O)c1ccc(Oc2ccc(CCNc3cc(Cl)nc(C)n3)cc2)nc1` [CK76, reference compound], the inhibition at 25 ppm in assay [1] was 0%. The pest or weed control at 600 µg/mL in assay [2] was determined as 0%; in assay [3], 0%; in assay [4], 52%; in assay [5] (setting [9]), 41%. In addition, the pest or weed control at 400 µg/mL was 70% in assay [6] (protectant activity), 75% in assay [7] (protectant activity) and 0% in assay [8] (protectant activity).
As for `CCc1ncnc(NC(=O)Cc2ccc(Oc3ccc(C(F)(F)F)cc3Cl)cc2)c1Cl` [CK57, reference compound], in assay [1], the inhibition at 25 ppm is < 50%. In addition, the pest or weed control at 600 µg/mL was 0% in assay [2], 0% in assay [3], 61% in assay [4] and 33% in assay [5] (setting [9]). Moreover, the figures for the pest or weed control at 400 µg/mL in assay [6] (protectant activity), in assay [7] (protectant activity) and in assay [8] (protectant activity) were 0%, 0% and 50%, respectively.
Consider `COC(=O)c1nc(Cl)nc(NC(C)c2ccc(Oc3ncc(C(F)(F)F)cc3Cl)cc2)c1Cl` (centres unmarked) [CK34, reference compound], for which the inhibition at 25 ppm in assay [1] was 0%. The pest or weed control at 600 µg/mL amounted to 0% in assay [2], 0% in assay [3], 65% in assay [4] and 0% in assay [5] (setting [9]). The pest or weed control at 400 µg/mL in assay [6] (protectant activity) amounted to 0%; in assay [7] (protectant activity), 0%; in assay [8] (protectant activity) it was 85%.
`CCOC(=O)c1ccc(Oc2ccc(CCNc3nc(Cl)ncc3Cl)cc2)nc1` [CK75, reference compound]: in assay [1], the inhibition at 25 ppm is 0%. In addition, the pest or weed control at 600 µg/mL in assay [2] stood at 0%; in assay [3], 0%; in assay [4] it was 100%; in assay [5] (setting [9]), 0%. In addition, in assay [4], the pest or weed control at 10 µg/mL was found to be 0%. Further, the pest or weed control at 100 µg/mL in assay [4] was determined as 0%. Moreover, the pest or weed control at 400 µg/mL was found to be 0% in assay [6] (protectant activity), 0% in assay [7] (protectant activity) and 60% in assay [8] (protectant activity).
As for `CCc1ncnc(NCCc2ccc(Oc3cc(Cl)cc(Cl)c3)cc2)c1Cl` [II-303], in assay [1], the inhibition at 25 ppm came to 100%. Besides, the pest or weed control at 600 ppm in assay [2] (600 ppm, mortality after 72 hrs, read-out: control (test results against diamond back moth)) was 80 to 99%; in assay [3] (600 ppm, mortality after 72 h), 80 to 99%; in assay [4] (600 ppm, death rate after 48 hrs), 100%; in assay [5] (600 ppm, mortality after 72 hrs) it was 100%. In addition, the pest or weed control at 100 ppm in assay [4] (100 ppm, death rate after 48 hrs) is 100%; in assay [6] (read-out: protectant activity against corn rust in vivo, 100 ppm), 100%; in assay [7] (read-out: protectant activity against wheat powdery mildew in vivo, 100 ppm), 100%; in assay [8] (read-out: protectant activity against cucumber downy mildew in vivo, 100 ppm) it was 80 to 99%. Also, the pest or weed control at 0.4 µg/mL in assay [6] (read-out: control effect against corn rust (%), 0.4 mg/L, protectant activity) was found to be 50%; in assay [7] (read-out: control effect against wheat powdery mildew (%), 0.4 mg/L, protectant activity), 25%. For the same compound, the pest or weed control at 1.6 µg/mL amounted to 80% in assay [6] (read-out: control effect against corn rust (%), 1.6 mg/L, protectant activity) and 80% in assay [7] (read-out: control effect against wheat powdery mildew (%), 1.6 mg/L, protectant activity). For the same compound, the pest or weed control at 6.25 µg/mL was found to be 100% in assay [6] (read-out: control effect against corn rust (%), 6.25 mg/L, protectant activity) and 90% in assay [7] (protectant activity). The pest or weed control at 25 µg/mL in assay [6] (read-out: control effect against corn rust (%), 25 mg/L, protectant activity) was determined as 100%; in assay [7] (protectant activity), 100%. Also, the pest or weed control at 100 µg/mL in assay [6] (read-out: control effect against corn rust (%), 100 mg/L, protectant activity) came out at 100%; in assay [7] (protectant activity), 100%. For the same compound, the pest or weed control at 400 µg/mL in assay [6] (protectant activity) and in assay [7] (protectant activity) was 100% each time. Also, the pest or weed control at 6.25 ppm was 100% in assay [6] (read-out: protectant activity against corn rust in vivo, 6.25 ppm) and 80 to 99% in assay [7] (read-out: protectant activity against wheat powdery mildew in vivo, 6.25 ppm). In addition, the pest or weed control at 25 ppm in assay [6] (read-out: protectant activity against corn rust in vivo, 25 ppm) came out at 100%; in assay [7] (read-out: protectant activity against wheat powdery mildew in vivo, 25 ppm) it was 100%. Moreover, the pest or weed control at 400 ppm came out at 100% in assay [6] (read-out: protectant activity against corn rust in vivo, 400 ppm); 100% in assay [7] (read-out: protectant activity against wheat powdery mildew in vivo, 400 ppm); 100% in assay [8] (read-out: protectant activity against cucumber downy mildew in vivo, 400 ppm).
With `Cc1nc(Cl)cc(NCCc2ccc(Oc3ncc(C(F)(F)F)cc3Cl)cc2)n1` [CK68, reference compound], the inhibition at 25 ppm in assay [1] is 0%. Also, the pest or weed control at 600 µg/mL was 14% in assay [2], 0% in assay [3], 0% in assay [4] and 4% in assay [5] (setting [9]). Further, the pest or weed control at 400 µg/mL in assay [6] (protectant activity), in assay [7] (protectant activity) and in assay [8] (protectant activity) was 0% each time.
